The supplement of paper PMC10627819

Assays:
B. subtilis 168 [1] = assay: fitness (endpoint OD595 vs no drug) (fraction); higher = more growth
Method in brief: (§1)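 With the first reading as background, OD595 was measured every 30 min for 14 h in 384-well plates kept at 37 °C and inoculated at OD595 0.01. TSB, LB Lennox or CY was the medium. Fitness is the optical density at the transition into stationary phase divided by the robust mean of no-drug control wells, with a cap of 1.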

S. aureus Newman [2] = assay: as above
Method in brief: as §1

S. pneumoniae D39V [3] = assay: as above
Method in brief: as §1

B. subtilis 168 [4] = assay: Bliss interaction score (quartile over a dose matrix) (fitness difference); higher = more antagonism (negative = synergy)
Method in brief: (§2)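 Fitness was derived from optical density at entry into stationary phase, divided by the robust mean of the no-drug wells on the same plate. That reading was taken as OD595, and the ratio was capped at 1. Single-drug fitness was inferred from the combination data. The Bliss score, observed fitness minus the expected product of single-drug fitness, was summarised as quartiles over technical, biological and donor/recipient replicates.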

S. aureus DSM 20231 = assay: as above
Method in brief: as §2

S. aureus Newman [5] = assay: as above
Method in brief: as §2

S. pneumoniae D39V [6] = assay: as above
Method in brief: as §2
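For Bliss interaction score (quartile over a dose matrix) in this document: first quartile when negative (synergy) and third quartile when positive (antagonism).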

O=C(O)c1cn(C2CC2)c2cc(N3CCNCC3)c(F)cc2c1=O [Ciprofloxacin] + CN[C@@H]1[C@H](O[C@H]2[C@H](O[C@H]3[C@H](O)[C@@H](O)[C@H](N=C(N)N)[C@@H](O)[C@@H]3N=C(N)N)O[C@@H](C)[C@]2(O)C=O)O[C@@H](CO)[C@H](O)[C@H]1O [Streptomycin]
fitness
Details | partner 1 µg/mL | partner 2 µg/mL | partner 4 µg/mL | partner 8 µg/mL
B. subtilis 168 [1], first compound 0.0098 µg/mL | – | 0.861 | – | –
B. subtilis 168 [1], first compound 0.0195 µg/mL | – | 0.601 | – | –
B. subtilis 168 [1], first compound 0.039 µg/mL | – | 0.0408 | 0.0521 | 0.0363
S. aureus Newman [2], first compound 0.0375 µg/mL | 0.737 | 0.7 | – | –
S. aureus Newman [2], first compound 0.075 µg/mL | 0.68 | 0.65 | – | –
S. aureus Newman [2], first compound 0.15 µg/mL | – | 0.0504 | 0.066 | –
S. pneumoniae D39V [3], first compound 0.125 µg/mL | – | 0.916 | 0.936 | 0.909
S. pneumoniae D39V [3], first compound 0.25 µg/mL | – | 0.872 | 0.774 | 0.765

S. pneumoniae D39V [3], partner 16 µg/mL, one replicate
Details | fitness
first compound 0.125 µg/mL | 0.739
first compound 0.25 µg/mL | 0.668
first compound 0.5 µg/mL | 0.379

Details | Bliss interaction score
B. subtilis 168 [4] | -0.109
S. aureus DSM 20231 | -0.0869
S. aureus Newman [5] | 0.0876
S. pneumoniae D39V [6] | -0.0549

O=C(O)c1cn(C2CC2)c2cc(N3CCNCC3)c(F)cc2c1=O [Ciprofloxacin] + CN1C2=CC=CC=C2N=C3C1=CC=CC3=O [Pyocyanin]
Details | fitness
B. subtilis 168 [1], first compound 0.0098 µg/mL, partner 1.25 µg/mL | 0.911
B. subtilis 168 [1], first compound 0.0098 µg/mL, partner 2.5 µg/mL | 0.809
B. subtilis 168 [1], first compound 0.0098 µg/mL, partner 5 µg/mL | 0.814
B. subtilis 168 [1], first compound 0.0195 µg/mL, partner 2.5 µg/mL | 0.703
B. subtilis 168 [1], first compound 0.0195 µg/mL, partner 5 µg/mL | 0.649
S. aureus Newman [2], first compound 0.0375 µg/mL, partner 1.25 µg/mL | 0.601
S. aureus Newman [2], first compound 0.0375 µg/mL, partner 2.5 µg/mL | 0.574
S. aureus Newman [2], first compound 0.0375 µg/mL, partner 5 µg/mL | 0.38
S. aureus Newman [2], first compound 0.075 µg/mL, partner 1.25 µg/mL | 0.578
S. aureus Newman [2], first compound 0.075 µg/mL, partner 2.5 µg/mL | 0.533
S. aureus Newman [2], first compound 0.075 µg/mL, partner 5 µg/mL | 0.26
S. aureus Newman [2], first compound 0.15 µg/mL, partner 1.25 µg/mL | 0.0395
S. aureus Newman [2], first compound 0.15 µg/mL, partner 2.5 µg/mL | 0.0384
S. aureus Newman [2], first compound 0.15 µg/mL, partner 5 µg/mL | 0.0694
S. pneumoniae D39V [3], first compound 0.125 µg/mL, partner 0.325 µg/mL | 0.989
S. pneumoniae D39V [3], first compound 0.125 µg/mL, partner 0.65 µg/mL | 0.966
S. pneumoniae D39V [3], first compound 0.125 µg/mL, partner 1.3 µg/mL | 0.755
S. pneumoniae D39V [3], first compound 0.25 µg/mL, partner 0.325 µg/mL | 0.924
S. pneumoniae D39V [3], first compound 0.25 µg/mL, partner 0.65 µg/mL | 0.92

Details | fitness
S. pneumoniae D39V [3], first compound 0.25 µg/mL, partner 1.3 µg/mL, one replicate | 0.54

Details | Bliss interaction score
B. subtilis 168 [4] | 0.104
S. aureus DSM 20231 | 0.0671
S. aureus Newman [5] | -0.0511
S. pneumoniae D39V [6] | 0.0709

CO/N=C(\C(=O)N[C@@H]1C(=O)N2C(C(=O)O)=C(COC(C)=O)CS[C@H]12)c1csc(N)n1 [Cefotaxime] + CN[C@@H]1[C@H](O[C@H]2[C@H](O[C@H]3[C@H](O)[C@@H](O)[C@H](N=C(N)N)[C@@H](O)[C@@H]3N=C(N)N)O[C@@H](C)[C@]2(O)C=O)O[C@@H](CO)[C@H](O)[C@H]1O [Streptomycin]
fitness, one replicate
Details | first compound 0.0018 µg/mL | first compound 0.0035 µg/mL | first compound 0.007 µg/mL | first compound 0.00775 µg/mL | first compound 0.0155 µg/mL | first compound 0.031 µg/mL
B. subtilis 168 [1], partner 2 µg/mL | – | – | – | 0.784 | 0.492 | 0.414
B. subtilis 168 [1], partner 4 µg/mL | – | – | – | 0.0757 | 0.0218 | 0.0306
B. subtilis 168 [1], partner 8 µg/mL | – | – | – | 0.0214 | 0.0302 | 0.0308
S. pneumoniae D39V [3], partner 16 µg/mL | 0.92 | 0.881 | 0.654 | – | – | –

fitness
Details | partner 1 µg/mL | partner 2 µg/mL | partner 4 µg/mL | partner 8 µg/mL
B. subtilis 168 [1], first compound 0.5 µg/mL | – | 0.0795 | 0.043 | 0.0401
B. subtilis 168 [1], first compound 1 µg/mL | – | 0.0611 | 0.0445 | 0.0309
B. subtilis 168 [1], first compound 2 µg/mL | – | 0.061 | 0.048 | 0.0478
S. aureus Newman [2], first compound 0.078 µg/mL | 0.761 | 0.757 | 0.72 | –
S. aureus Newman [2], first compound 0.156 µg/mL | 0.589 | 0.589 | 0.474 | –
S. aureus Newman [2], first compound 0.312 µg/mL | 0.382 | 0.29 | 0.155 | –
S. aureus Newman [2], first compound 0.625 µg/mL | 0.114 | 0.0719 | 0.0326 | –
S. aureus Newman [2], first compound 1.25 µg/mL | 0.0262 | 0.0178 | 0.0244 | –
S. aureus Newman [2], first compound 2.5 µg/mL | 0.0379 | 0.0307 | 0.0187 | –
S. pneumoniae D39V [3], first compound 0.0018 µg/mL | – | 0.966 | 0.996 | 0.964
S. pneumoniae D39V [3], first compound 0.0035 µg/mL | – | 0.945 | 0.974 | 0.963
S. pneumoniae D39V [3], first compound 0.007 µg/mL | – | 0.787 | 0.822 | 0.846

Details | Bliss interaction score
B. subtilis 168 [4] | -0.105
S. aureus DSM 20231 | -0.0464
S. aureus Newman [5] | -0.0376
S. pneumoniae D39V [6] | 0.0714
